Laboratory results published in PubChem BioAssay (NCI).
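Briefly, cells in 96-well plates were exposed to five compound concentrations for 48 h, and endpoints were estimated by linear interpolation. Abbreviation: GI50, concentration required for 50% inhibition of growth. Definition used: TGI = concentration required for complete inhibition of growth.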

How the values were obtained:
Assay in all cases: DTP human tumour cell line panel, 48 h
CCRF-CEM leukemia = tested on: CCRF-CEM leukemia
SK-MEL-28 melanoma = tested on: SK-MEL-28 melanoma
HCT-116 colon = tested on: HCT-116 colon
HL-60(TB) leukemia = tested on: HL-60(TB) leukemia
SNB-19 CNS = tested on: SNB-19 CNS
RXF 393 renal = tested on: RXF 393 renal
SK-MEL-5 melanoma = tested on: SK-MEL-5 melanoma
RPMI-8226 leukemia = tested on: RPMI-8226 leukemia
LOX IMVI melanoma = tested on: LOX IMVI melanoma
786-0 renal = tested on: 786-0 renal
COLO 205 colon = tested on: COLO 205 colon
KM12 colon = tested on: KM12 colon
NCI-H522 lung = tested on: NCI-H522 lung
SNB-75 CNS = tested on: SNB-75 CNS
U251 CNS = tested on: U251 CNS
NCI-H23 lung = tested on: NCI-H23 lung
PC-3 prostate = tested on: PC-3 prostate
SF-295 CNS = tested on: SF-295 CNS
OVCAR-4 ovarian = tested on: OVCAR-4 ovarian
MALME-3M melanoma = tested on: MALME-3M melanoma
OVCAR-8 ovarian = tested on: OVCAR-8 ovarian
SW-620 colon = tested on: SW-620 colon
HS 578T breast = tested on: HS 578T breast
K-562 leukemia = tested on: K-562 leukemia
MCF7 breast = tested on: MCF7 breast
HOP-92 NSCLC = tested on: HOP-92 NSCLC
EKVX NSCLC = tested on: EKVX NSCLC
OVCAR-3 ovarian = tested on: OVCAR-3 ovarian
SF-268 CNS = tested on: SF-268 CNS
UACC-257 melanoma = tested on: UACC-257 melanoma
MDA-MB-231 breast = tested on: MDA-MB-231 breast
SF-539 CNS = tested on: SF-539 CNS
NCI-H460 lung = tested on: NCI-H460 lung
A498 renal = tested on: A498 renal
M14 melanoma = tested on: M14 melanoma
HOP-62 NSCLC = tested on: HOP-62 NSCLC
CAKI-1 renal = tested on: CAKI-1 renal
UO-31 renal = tested on: UO-31 renal
SK-OV-3 ovarian = tested on: SK-OV-3 ovarian
TK-10 renal = tested on: TK-10 renal
OVCAR-5 ovarian = tested on: OVCAR-5 ovarian
MDA-MB-435 = tested on: MDA-MB-435
BT-549 breast = tested on: BT-549 breast
HCT-15 colon = tested on: HCT-15 colon
NCI-H226 lung = tested on: NCI-H226 lung
SR leukemia = tested on: SR leukemia
T-47D breast = tested on: T-47D breast
IGROV1 ovarian = tested on: IGROV1 ovarian
SN12C renal = tested on: SN12C renal
HT29 colon = tested on: HT29 colon
UACC-62 melanoma = tested on: UACC-62 melanoma
MOLT-4 leukemia = tested on: MOLT-4 leukemia
SK-MEL-2 melanoma = tested on: SK-MEL-2 melanoma
A549 NSCLC = tested on: A549 NSCLC
ACHN renal = tested on: ACHN renal
DU-145 prostate = tested on: DU-145 prostate
HCC-2998 colon = tested on: HCC-2998 colon

Compound `CC(c1ccccc1)N1C(=O)CSC1=S` (stereo not drawn) has a GI50 (CCRF-CEM leukemia) of 941 nM, a TGI (CCRF-CEM leukemia) of over 100000 nM and a GI50 (SK-MEL-28 melanoma) of 3520 nM. For the same compound, the TGI (SK-MEL-28 melanoma) was 54100 nM, the GI50 (HCT-116 colon) was 137 nM and the TGI (HCT-116 colon) was 1380 nM. The GI50 (HL-60(TB) leukemia) was 140 nM, the TGI (HL-60(TB) leukemia) was 1450 nM and the GI50 (SNB-19 CNS) was 302 nM. For the same compound, the TGI (SNB-19 CNS) was 1100 nM, the GI50 (RXF 393 renal) was 747 nM and the TGI (RXF 393 renal) was 6270 nM. The GI50 (SK-MEL-5 melanoma) was 1860 nM, the TGI (SK-MEL-5 melanoma) was 9830 nM and the GI50 (RPMI-8226 leukemia) was 382 nM. The TGI (RPMI-8226 leukemia) was 34200 nM, the GI50 (LOX IMVI melanoma) was 446 nM and the TGI (LOX IMVI melanoma) was 19500 nM. For the same compound, the GI50 (786-0 renal) was 628 nM, the TGI (786-0 renal) was over 100000 nM and the GI50 (COLO 205 colon) was 300 nM. It also gave a TGI (COLO 205 colon) of 1080 nM, a GI50 (KM12 colon) of 49.5 nM and a TGI (KM12 colon) of 438 nM. It also gave a GI50 (NCI-H522 lung) of 114 nM, a TGI (NCI-H522 lung) of 3810 nM and a GI50 (SNB-75 CNS) of 2890 nM. For the same compound, the TGI (SNB-75 CNS) was over 22200 nM, the GI50 (U251 CNS) was 400 nM and the TGI (U251 CNS) was 16500 nM. The GI50 (NCI-H23 lung) was 6820 nM, the TGI (NCI-H23 lung) was over 46000 nM and the GI50 (PC-3 prostate) was 989 nM. For the same compound, the TGI (PC-3 prostate) was over 100000 nM, the GI50 (SF-295 CNS) was 2860 nM and the GI50 (OVCAR-4 ovarian) was 1360 nM. For the same compound, the TGI (OVCAR-4 ovarian) was over 100000 nM, the GI50 (MALME-3M melanoma) was 7390 nM and the TGI (MALME-3M melanoma) was over 100000 nM. It also gave a GI50 (OVCAR-8 ovarian) of 2000 nM, a TGI (OVCAR-8 ovarian) of over 100000 nM and a GI50 (SW-620 colon) of 418 nM. The TGI (SW-620 colon) was over 38500 nM, the GI50 (HS 578T breast) was 779 nM and the GI50 (K-562 leukemia) was 346 nM. It also gave a TGI (K-562 leukemia) of over 100000 nM, a GI50 (MCF7 breast) of 58.3 nM and a TGI (MCF7 breast) of 13700 nM. The GI50 (HOP-92 NSCLC) was 4290 nM, the TGI (HOP-92 NSCLC) was over 100000 nM and the GI50 (EKVX NSCLC) was 7570 nM. The TGI (EKVX NSCLC) was over 100000 nM, the GI50 (OVCAR-3 ovarian) was 232 nM and the TGI (OVCAR-3 ovarian) was 1230 nM. It also gave a GI50 (SF-268 CNS) of 1010 nM, a TGI (SF-268 CNS) of 45700 nM and a GI50 (UACC-257 melanoma) of 3220 nM. It also gave a TGI (UACC-257 melanoma) of 33800 nM, a GI50 (MDA-MB-231 breast) of 463 nM and a TGI (MDA-MB-231 breast) of over 23800 nM. The GI50 (SF-539 CNS) was 228 nM, the GI50 (NCI-H460 lung) was 970 nM and the GI50 (A498 renal) was 7320 nM. For the same compound, the TGI (A498 renal) was 55300 nM, the GI50 (M14 melanoma) was 332 nM and the TGI (M14 melanoma) was 2990 nM. For the same compound, the GI50 (HOP-62 NSCLC) was 526 nM, the TGI (HOP-62 NSCLC) was 14400 nM and the GI50 (CAKI-1 renal) was 1330 nM. It also gave a GI50 (UO-31 renal) of 5730 nM, a TGI (UO-31 renal) of over 83500 nM and a GI50 (SK-OV-3 ovarian) of 2390 nM. It also gave a TGI (SK-OV-3 ovarian) of over 81800 nM, a GI50 (TK-10 renal) of 8780 nM and a TGI (TK-10 renal) of over 93300 nM. For the same compound, the GI50 (OVCAR-5 ovarian) was 4050 nM, the TGI (OVCAR-5 ovarian) was 49400 nM and the GI50 (MDA-MB-435) was 319 nM. It also gave a TGI (MDA-MB-435) of 7210 nM, a GI50 (BT-549 breast) of 2460 nM and a TGI (BT-549 breast) of 36000 nM. The GI50 (HCT-15 colon) was 659 nM, the TGI (HCT-15 colon) was over 100000 nM and the GI50 (NCI-H226 lung) was 3560 nM. It also gave a TGI (NCI-H226 lung) of over 100000 nM, a GI50 (SR leukemia) of 109 nM and a TGI (SR leukemia) of over 100000 nM. For the same compound, the GI50 (T-47D breast) was 4100 nM, the TGI (T-47D breast) was 70600 nM and the GI50 (IGROV1 ovarian) was 129 nM. The TGI (IGROV1 ovarian) was 697 nM, the GI50 (SN12C renal) was 701 nM and the TGI (SN12C renal) was over 100000 nM. The GI50 (HT29 colon) was 362 nM, the GI50 (UACC-62 melanoma) was 330 nM and the TGI (UACC-62 melanoma) was 10700 nM. It also gave a GI50 (MOLT-4 leukemia) of 1750 nM, a TGI (MOLT-4 leukemia) of over 100000 nM and a GI50 (SK-MEL-2 melanoma) of 604 nM. The TGI (SK-MEL-2 melanoma) was 12400 nM, the GI50 (A549 NSCLC) was 4670 nM and the TGI (A549 NSCLC) was over 59100 nM. For the same compound, the GI50 (ACHN renal) was 3610 nM, the TGI (ACHN renal) was over 100000 nM and the GI50 (DU-145 prostate) was 379 nM. The TGI (DU-145 prostate) was 3660 nM, the GI50 (HCC-2998 colon) was 3080 nM and the TGI (HCC-2998 colon) was 8860 nM.
